Here are results for one molecule from publication PMC10119930, “Dual Molecules Targeting 5-HT6 and GABA-A Receptors as a New Approach to Combat Depression Associated with Neuroinflammation” (ACS Chemical Neuroscience, 2023).

One data set deals with female Wistar rats. The data set is described as follows: Open field test in rats (locomotor activity). In kind it is in vivo, rat. Further details: total distance traveled: unit not given here. The protocol: Naïve female Wistar rats (weighing 180–200 g) were used in the study. The animals were housed in groups of three to four in standard Makrolon cages (37 cm × 21 cm × 15 cm) under strictly controlled laboratory conditions (ambient temperature 21–24 °C, relative humidity 45–65%) with a 12/12 h light–dark regime (light on at 6:00 a.m. and off at 6:00 p.m.). Animals had unrestricted access to tap water and food (typical pellets). Prior the experiment the animals were randomly appointed to the group. The behavioral studies were accomplished between 8:00 a.m. and 5:00 p.m. with the researcher blind to the study. The experiments were performed according to protocols approved by the Local Ethical Committee in Krakow (Approval Number 147/2018), Poland. Housing and experimental procedures were conducted under the European Union Directive of September 22, 2010 (2010/63/EU) and Polish legislation regarding animal studies. All efforts were made to minimize animal suffering and the number of animals used in the study.
Vortioxetine (Sigma, Germany) and the tested compounds (16 and 6) were dissolved in 10% cyclodextrin and administered ip 30 min before the test or during 14 consecutive days, with the last injection 60 min before the test. 10% cyclodextrin was administrated to control group.
A modified forced swim test was carried out according to Detke et al.[50],[51] First, the animals were individually placed inside Plexiglas cylinders, which were 40 cm high and 18 cm in diameter, filled with water at a temperature of 23–25 °C for 15 min. Afterward, the rats were transferred to a Plexiglas box and kept under a 60 W bulb for 30 min to dry. The day after, exactly 24 h later, the rats were once again placed in the cylinder, and their duration of immobility, swimming, and climbing was observed and recorded during a 5 min. The swimming behavior involved energetic movements such as horizontal swimming around the cylinder, while climbing activity referred to upward movements of the forepaws along the swim chamber’s side. Immobility was recorded when the rat only made necessary movements to keep its head above the water. For each test, a fresh water was provided. Open field test in rats: The test was conducted as previously reported by our research group.[52] The test was performed in a darkened room employing the Motor Monitor System (Campden Instruments, Ltd., U.K.). The system was equipped with two SmartFrame Open Field stations, each measuring 40 cm × 40 cm × 38 cm and consisting of 16 × 16 beams. These stations were placed inside sound-attenuating chambers and connected to a PC software using […]. The animals, belonging to either the vehicle-injected or drug-injected group, were individually positioned at the center of the station. The Motor Monitor System, which was automated, recorded the animal’s ambulation in both the X and Y axes, as well as the number of rearing and peeping episodes. Additionally, the total distance traveled by each animal during the 5 min test period was also recorded. Statistical analysis: Results are presented as the mean ± SEM values. They were estimated using one-way analysis of variance (ANOVA), followed by Newman–Keuls post hoc or unpaired two-tailed Student t test. Statistical significance was considered when p < 0.05 for differences between groups.

The nature of a further data set: Plasma stability assay. In kind it is in vitro ADME, rat. The protocol: The quantitative HPLC analyses were acquired using Waters Alliance e2695 separations module (Waters, Milford, CT, USA) containing 2998 photodiode array (PDA), a detector (Waters, Milford, CT, USA), and the SpeedROD RP-18e 50–4.6 mm column (Merck, KGaA, Darmstadt, Germany). The temperature of the column was preserved at 30 °C. […] Each sample was injected at a volume of 10 μL in triplicate. […] The stock solutions were mixed with methanol and diluted, resulting in various solutions with concentrations ranging from 1.0 to 0.125 μg/mL. These solutions were then utilized to generate calibration curves by plotting AUC versus concentration in μg/mL. The examined molecules (2 mg) were dissolved in 1 mL of Dulbecco’s phosphate buffered saline (DPBS). The mixture was then continuously agitated at 22 °C for 24 h using a thermoshaker. Following this period, the mixtures were filtered through a cellulose acetate syringe filter (with a pore size of 0.22 μm), moved to a chromatographic vial, and analyzed. To quantify the investigated compounds, the areas beneath their respective peaks on DAD chromatograms were employed. Solubility was calculated using the calibration curves. Chemical stability assay: Stock solution of 16 in DMSO (10 mg/mL) was used. Next, 25 μL of stock solution was mixed with 975 μL of PBS (Dulbecco’s phosphate-buffered saline, Sigma, Poland). […] HPLC analyses were used to quantify the percentage of molecules that remained at each time point relative to the 0 min time point. Brain tissue stability assay: […] Then, 50 μL of the stock solution was combined with 50 μL of ice-cold 50 mM Tris-HCl buffer (pH 7.4) and 150 μL of brain homogenate (suspended in 20 volumes of 50 mM Tris-HCl buffer, ice cold, pH 7.4). The mix was then incubated at 37 °C and quenched at several time points. To terminate the reaction mixture, 250 μL of the appropriate reaction mixture was mixed with 1000 μL of MeCM in the Eppendorf Tube. Following 10 min of shaking (1500 rpm), samples were centrifuged (10 000 rpm, 10 min, 4 °C) and the acquired supernatant was collected. Before conducting HPLC analysis, the supernatant was filtered via a cellulose acetate syringe filter with a pore size of 0.45 μm and then transferred to a chromatographic vial. HPLC analysis was used to determine the percentage of the tested molecule remaining at each time point, relative to the 0 min time point. Plasma stability assay was performed as described previously.[45] Frozen rat plasma (Wistar) was thawed. […] The samples were collected at relative time points. The reaction was terminated by adding 1200 of μL acetonitrile/methanol mixture (50:50, v/v). The samples were centrifuge at 25 000 rpm for 10 min. HPLC analysis was used to determine the percentage of the tested molecule remaining at each time point relative to the 0 min time point. All the experiments were performed in duplicate.

Where [1] appears, read: acute treatment, dose 3, ip 30 min prior.
Setting [2] is: chronic treatment, dose 3, ip 14 days.

Molecules are shown by their SMILES.

`Cc1c(OCc2ccccc2)cccc1N1CCN(CCOC(=O)CCCN)CC1.Cl.Cl` [Compound 16, 1-(2-((4-Ammoniobutanoyl)oxy)ethyl)-4-(3-(benzyloxy)-2-methylphenyl)piperazin-1-ium Dichloride]: the X ambulation with female Wistar rats (setting [1]) came to 221.3; in the data set with female Wistar rats (setting [2]) it was 260.4. Also, the Y ambulation stood at 213.7 with female Wistar rats (setting [1]) and 255.3 in the data set on female Wistar rats (setting [2]). Further, the values for the rearing in the data set on female Wistar rats (setting [1]) and in the data set on female Wistar rats (setting [2]) were 34.5 and 52.2, respectively. In addition, the total distance traveled in the data set on female Wistar rats (setting [1]) was 506.3; in the data set with female Wistar rats (setting [2]) it was 2575. For the same molecule, the “influence on spontaneous locomotor activity” value in the data set on female Wistar rats (acute, 3 mg/kg) is reported as “did not observe any influence”. Besides, the “changes in spontaneous locomotor activity” value in the data set with female Wistar rats (subchronic, 3 mg/kg) is on record as “did not result in any significant changes”. The “% compound remaining (rat plasma, 37 °C)” value in “Plasma stability assay” (0 min) was determined as 100 ± 0.1%; in the data set “Plasma stability assay” (15 min) it was 97.21 ± 0.8%; in “Plasma stability assay” (30 min), 90.35 ± 1.4%; in the data set “Plasma stability assay” (60 min), 79.65 ± 2.5%; in the data set “Plasma stability assay” (120 min), 45.37 ± 2.2%; in “Plasma stability assay” (240 min), 21.46 ± 1.2%.
